The test deals with ISR pathway (ATF4 translation). Description: ATF4 Nano Luciferase reporter integrated stress response (ISR) assay in H4 ATF4-NLuc cells. To be noted: Homo sapiens, read-out: Activity (IC50), H4 ATF4-NLuc (clone 17) cells; compound 30 minutes, then 50 um sodium arsenite for 6 hours; luminescence readout.
Consider `O=C(CO[C@H]1C[C@@H](OC(F)(F)F)C1)NC12CC(NCCOc3ccc(Cl)c(F)c3)(C1)C2` [Example 246], for which the IC50 (as a rule, the concentration needed to halve the response being measured) was < 1000 nM.
In the case of `O=C(COc1cccc(F)c1)NC12CC(c3nnc([C@H]4C[C@@H](OC(F)(F)F)C4)o3)(C1)C2` [Example 105, 2-(3-fluorophenoxy)-N-[3-[5-[3-cis-(trifluoromethoxy)cyclobutyl]-1,3,4-oxadiazol-2-yl]-1-bicyclo[1.1.1]pentanyl]acetamide], the half-inhibitory concentration (IC50) is < 1000 nM.
With `O=C(NC12CC(c3nnc([C@H]4C[C@@H](OC(F)(F)F)C4)o3)(C1)C2)OC[C@H]1C[C@@H](OC(F)(F)F)C1` [Example 88, [3-cis-(trifluoromethoxy)cyclobutyl]methyl N-[3-[5-[3-cis-(trifluoromethoxy)cyclobutyl]-1,3,4-oxadiazol-2-yl]-1-bicyclo[1.1.1]pentanyl]carbamate], the IC50 was < 1000 nM.
Turning to `O=C(COc1ccc(Cl)c(F)c1)NC12CC(c3nnc(C4CC4(F)F)o3)(C1)C2` (centres unmarked) [Example 18, 2-(4-chloro-3-fluoro-phenoxy)-N-[3-[5-(2,2-difluorocyclopropyl)-1,3,4-oxadiazol-2-yl]-1-bicyclo[1.1.1]pentanyl]acetamide], the IC50 was < 1000 nM.
For the compound `O=C(COc1ccc(Cl)c(F)c1)NC12CC(c3nnc([C@H]4C[C@H]4C(F)F)o3)(C1)C2` (single isomer, unassigned) [Example 85, 2-(4-chloro-3-fluoro-phenoxy)-N-[3-[5-[2-cis-(difluoromethyl)cyclopropyl]-1,3,4-oxadiazol-2-yl]-1-bicyclo[1.1.1]pentanyl]acetamide], the IC50 was in the range of 1000 to 10000 nM.
Regarding `N#C[C@H]1C[C@H](n2ncc(C34CC(NC(=O)COc5ccc(Cl)c(F)c5)(C3)C4)n2)C1` [Example 33, 2-(4-chloro-3-fluorophenoxy)-N-(3-(2-((trans)-3-cyanocyclobutyl)-2H-1,2,3-triazol-4-yl)bicyclo[1.1.1]pentan-1-yl)acetamide], the IC50 is < 1000 nM.
To `O=C(COc1ccc(Cl)cc1)NC12CC(c3nnc(C4CCOC4)o3)(C1)C2` (centres unmarked) [Example 1, 2-(4-Chlorophenoxy)-N-[3-(5-tetrahydrofuran-3-yl-1,3,4-oxadiazol-2-yl)-1-bicyclo[1.1.1]pentanyl]acetamide] belongs 1000 to 10000 nM.
`O=C(CO[C@H]1C[C@@H](OC(F)(F)F)C1)NC12CC(n3cnc(-c4ccc(F)c(F)c4)c3)(C1)C2` [Example 138]: the IC50 is < 1000 nM.
As to `O=C(COc1ccc(Cl)c(F)c1)NC12CC(N3C[C@H](C4CC(OC(F)(F)F)C4)OC3=O)(C1)C2` (single isomer, unassigned) [Example 206], the IC50 is < 1000 nM.
The value for `N#CC1CC([C@H]2CN(C34CC(NC(=O)COc5ccc(Cl)c(F)c5)(C3)C4)C(=O)O2)C1` (single isomer, unassigned) [Example 218] was < 1000 nM.
With `O=C(COc1ccc(Cl)c(F)c1)NC12CC(c3cc(C4CCC4)no3)(C1)C2` [Example 26, 2-(4-Chloro-3-fluorophenoxy)-N-(3-(3-cyclobutylisoxazol-5-yl)bicyclo[1.1.1]pentan-1-yl)acetamide], the IC50 is < 1000 nM.
In the case of `CC1C(c2nnc(C34CC(NC(=O)COc5ccc(Cl)c(F)c5)(C3)C4)o2)CN1CC(F)(F)F` (centres unmarked) [Example 121, 2-(4-chloro-3-fluoro-phenoxy)-N-[3-[5-[2-methyl-1-(2,2,2-trifluoroethyl)azetidin-3-yl]-1,3,4-oxadiazol-2-yl]-1-bicyclo[1.1.1]pentanyl]acetamide], the half-maximal inhibitory concentration (IC50) was < 1000 nM.
For `O=C(CO[C@H]1C[C@@H](OC(F)(F)F)C1)NC12CC(c3nnc(-c4ccc(C(F)(F)F)cn4)o3)(C1)C2` [Example 199], the half-inhibitory concentration (IC50) was < 1000 nM.
As to `O=C(COc1ccc(Cl)cc1)NC12CC(N3CC(CC(F)(F)F)CC3=O)(C1)C2` (centres unmarked) [Example 210], the IC50 is < 1000 nM.

The values are drawn from patent US11851440B2, “Modulators of eukaryotic initiation factor 2B, compositions and methods” (Denali Therapeutics Inc., priority 2017, dated 2023).
